Data taken from US20190029257A1, “APPLICATION FOR HERBICIDE-TOLERANT PROTEIN” (BEIJING DABEINONG TECHNOLOGY GROUP CO., LTD., priority 2016, published 2019).

Assays:
Format in all cases: in vivo
[1] = tested on: Gm cytoplasmic ALT-1-01 soybean plants; test: Halosulfuron-methyl tolerance of soybean plants (damage degree); conditions: 34 g ai/ha (1x Hal.); for Average damage % 3 DAT: 3 days after spraying; for Average damage % 7 DAT: 7 days after spraying; for Average damage % 14 DAT: 14 days after spraying; for Average damage % 21 DAT: 21 days after spraying
From the text: (§1) The herbicide tolerance effects of Gm cytoplasmic ALT-1-01 soybean plants, Gm chloroplastic ALT-1-01 soybean plants, Gm cytoplasmic ALT-2-01 soybean plants, Gm chloroplastic ALT-2-01 soybean plants, Gm cytoplasmic ALT-3-01 soybean plants, Gm chloroplastic ALT-3-01 soybean plants and wild-type soybean plants on halosulfuron-methyl were detected (at seedling stage), respectively.
(§2) Gm cytoplasmic ALT-1-01 soybean plants, Gm chloroplastic ALT-1-01 soybean plants, Gm cytoplasmic ALT-2-01 soybean plants, Gm chloroplastic ALT-2-01 soybean plants, Gm cytoplasmic ALT-3-01 soybean plants, Gm chloroplastic ALT-3-01 soybean plants and wild-type soybean plants were respectively taken and sprayed with halosulfuron-methyl (34 g ai/ha, 1-fold field concentration) and a blank solvent (water). The damage degree caused by the herbicide was measured for each plant according to the leaf curl degree and the growth point damage degree 3 days after spraying (3 DAT), 7 days after spraying (7 DAT), 14 days after spraying (14 DAT) and 21 days after spraying (21 DAT), respectively: considering conditions of leaves being flat as the untreated plants and growth points being intact as having a damage degree of 0%; considering conditions of veins being locally browned, new leaves being malformed and plant growth being slow as having a damage degree of 50%; and considering conditions of veins being purple to whole plant being dead and growth points being browned and dry as having a damage degree of 100%. There were 2 strains in Gm cytoplasmic ALT-1-01 soybean plants in total (S1 and S2), 2 strains in Gm chloroplastic ALT-1-01 soybean plants in total (S3 and S4), 2 strains in Gm cytoplasmic ALT-2-01 soybean plants in total (S5 and S6), 2 strains in Gm chloroplastic ALT-2-01 soybean plants in total (S7 and S8), 2 strains in Gm cytoplasmic ALT-3-01 soybean plants in total (S9 and S10), 2 strains in Gm chloroplastic ALT-3-01 soybean plants in total (S11 and S12), and 1 strain in wild-type soybean plants (CK1) in total; and 10-15 plants were selected from each strain and tested.

[2] = tested on: Gm cytoplasmic ALT-3-01 soybean plants; test: as above; conditions: 34 g ai/ha (1-fold field concentration); for Average damage % 3 DAT: 3 days after spraying; for Average damage % 7 DAT: 7 days after spraying; for Average damage % 14 DAT: 14 days after spraying; for Average damage % 21 DAT: 21 days after spraying
From the text: as §1, §2

[3] = tested on: Gm chloroplastic ALT-2-01 soybean plants; test: as above; conditions: 34 g ai/ha (1x Hal.); for Average damage % 3 DAT: 3 days after spraying; for Average damage % 7 DAT: 7 days after spraying; for Average damage % 14 DAT: 14 days after spraying; for Average damage % 21 DAT: 21 days after spraying
From the text: as §1, §2

[4] = tested on: Gm chloroplastic ALT-1-01 soybean plants; test: as above; conditions: 34 g ai/ha (1x Hal.); for Average damage % 3 DAT: 3 days after spraying; for Average damage % 7 DAT: 7 days after spraying; for Average damage % 14 DAT: 14 days after spraying; for Average damage % 21 DAT: 21 days after spraying
From the text: as §1, §2

[5] = tested on: Gm cytoplasmic ALT-2-01 soybean plants; test: as above; conditions: 34 g ai/ha (1x Hal.); for Average damage % 3 DAT: 3 days after spraying; for Average damage % 7 DAT: 7 days after spraying; for Average damage % 14 DAT: 14 days after spraying; for Average damage % 21 DAT: 21 days after spraying
From the text: as §1, §2

[6] = tested on: Zm chloroplastic ALT-3-02 maize plants; test: Halosulfuron-methyl tolerance of maize plants (damage degree); conditions: 36 g ai/ha (4x Hal.); for Average damage % 3 DAT: 3 days after spraying; for Average damage % 7 DAT: 7 days after spraying; for Average damage % 14 DAT: 14 days after spraying; for Average damage % 21 DAT: 21 days after spraying
From the text: as §1, with “Zm” for “Gm”, “ALT-1-02 maize” for “ALT-1-01 soybean”, “ALT-2-02 maize” for “ALT-2-01 soybean”, “ALT-3-02 maize” for “ALT-3-01 soybean”, “maize” for “soybean”, “V3-V4” for “seedling”
Zm cytoplasmic ALT-1-02 maize plants, Zm chloroplastic ALT-1-02 maize plants, Zm cytoplasmic ALT-2-02 maize plants, Zm chloroplastic ALT-2-02 maize plants, Zm cytoplasmic ALT-3-02 maize plants, Zm chloroplastic ALT-3-02 maize plants and wild-type maize plants were respectively taken and sprayed with halosulfuron-methyl (36 g ai/ha, 4-fold field concentration) and a blank solvent (water). The damage degree caused by the herbicide was measured for each plant according to the plant growth status 3 days after spraying (3 DAT), 7 days after spraying (7 DAT), 14 days after spraying (14 DAT) and 21 days after spraying (21 DAT), respectively: considering a growth status equivalent to that of the untreated plants as having a damage degree of 0%; considering conditions of leaves being partially chlorotic and yellow but substantially not affecting the plant normal growth as having a damage degree of 50%; and considering the whole plant being purple and dying as having a damage degree of 100%. There were 2 strains in Zm cytoplasmic ALT-1-02 maize plants in total (S13 and S14), 2 strains in Zm chloroplastic ALT-1-02 maize plants in total (S15 and S16), 2 strains in Zm cytoplasmic ALT-2-02 maize plants in total (S17 and S18), 2 strains in Zm chloroplastic ALT-2-02 maize plants in total (S19 and S20), 2 strains in Zm cytoplasmic ALT-3-02 maize plants in total (S21 and S22), 2 strains in Zm chloroplastic ALT-3-02 maize plants in total (S23 and S24), and 1 strain in wild- type maize plants (CK2) in total; and 10-15 plants were selected from each strain and tested.

## COC(=O)c1c(Cl)nn(C)c1S(=O)(=O)NC(=O)Nc1nc(OC)cc(OC)n1 [halosulfuron-methyl, 3-chlorine-5-(4,6-dimethoxypyrimidine-2-aminocarbonylaminosulphonyl)-1-methylpyrazole-4-carboxylic acid methyl ester]
[1]; strain S1
  Average damage % 3 DAT: 13%
  Average damage % 7 DAT: 7%
  Average damage % 14 DAT: 0%
  Average damage % 21 DAT: 0%
[1]; strain S2
  Average damage % 3 DAT: 12%
  Average damage % 7 DAT: 6%
  Average damage % 14 DAT: 0%
  Average damage % 21 DAT: 0%
[2]; strain S9
  Average damage % 3 DAT: 13%
  Average damage % 7 DAT: 6%
  Average damage % 14 DAT: 0%
  Average damage % 21 DAT: 0%
[2]; strain S10
  Average damage % 3 DAT: 12%
  Average damage % 7 DAT: 5%
  Average damage % 14 DAT: 0%
  Average damage % 21 DAT: 0%
[3]; strain S7
  Average damage % 3 DAT: 10%
  Average damage % 7 DAT: 4%
  Average damage % 14 DAT: 0%
  Average damage % 21 DAT: 0%
[3]; strain S8
  Average damage % 3 DAT: 9%
  Average damage % 7 DAT: 5%
  Average damage % 14 DAT: 0%
  Average damage % 21 DAT: 0%
[4]; strain S3
  Average damage % 3 DAT: 10%
  Average damage % 7 DAT: 5%
  Average damage % 14 DAT: 0%
  Average damage % 21 DAT: 0%
[4]; strain S4
  Average damage % 3 DAT: 11%
  Average damage % 7 DAT: 5%
  Average damage % 14 DAT: 0%
  Average damage % 21 DAT: 0%
[5]; strain S5
  Average damage % 3 DAT: 14%
  Average damage % 7 DAT: 6%
  Average damage % 14 DAT: 0%
  Average damage % 21 DAT: 0%
[5]; strain S6
  Average damage % 3 DAT: 12%
  Average damage % 7 DAT: 6%
  Average damage % 14 DAT: 0%
  Average damage % 21 DAT: 0%
[6]; strain S23
  Average damage % 3 DAT: 0%
  Average damage % 7 DAT: 0%
  Average damage % 14 DAT: 0%
  Average damage % 21 DAT: 0%
[6]; strain S24
  Average damage % 3 DAT: 0%
  Average damage % 7 DAT: 0%
  Average damage % 14 DAT: 0%
  Average damage % 21 DAT: 0%
